This is an account of results in ChEMBL document CHEMBL1134712, “2-Aryl indole NK1 receptor antagonists: optimisation of indole substitution” (Bioorg Med Chem Lett, 2001).

In data set [1] the target is Substance-P receptor (Homo sapiens, UniProt P25103). Nature of the data set: Concentration required for displacement of [125I]-labeled substance P from cloned hNK1 receptor expressed in CHO cells. Format: cell-based.
In data set [2] the test system is Gerbillinae. In words: Percent inhibition of gerbil foot-tapping at 1 mg/kg, iv after pre-treatment time of 2 hr. In kind it is functional.
The subject of data set [3] is Gerbillinae. Nature of the data set: Percent inhibition of gerbil foot-tapping at 1 mg/kg, iv immediately following pre-treatment […]. In kind it is functional.
The species entered for data set [4] is Rattus norvegicus. Nature of the data set: Systemic AUC was determined by pharmacokinetic study conducted in portal vein cannulated rats. The conditions noted are these: in vivo. Format: ADME, organism-based.
Data set [5] is filed under the species Rattus norvegicus. Nature of the data set: Hepatic portal AUC was determined by pharmacokinetic study conducted in portal vein cannulated rats. Format: ADME, organism-based. The conditions noted are these: in vivo.
In data set [6] the test system is Gerbillinae. Nature of the data set: Percent inhibition of foot-tapping at 1 mg/kg, iv after pre-treatment time of 2 hr […]. Format: functional.
A short description of data set [7]: Plasma clearance rate determined in rats. Format: ADME, organism-based. The conditions noted are these: rat, read-out: Clearance rate.
Data set [8] concerns Gerbillinae. Nature of the data set: In vivo inhibitory dose determined in the gerbil foot-tapping assay after intravenous administration. Format: functional. The conditions noted are these: read-out: ID50 (the source's name).
Data set [9] is described as follows: Percent oral bioavailability determined in rats. In kind it is ADME, organism-based. The conditions noted are these: rat, in vivo, read-out: Bioavailabiility.

Substance-P receptor, sequence (P25103 whole entry): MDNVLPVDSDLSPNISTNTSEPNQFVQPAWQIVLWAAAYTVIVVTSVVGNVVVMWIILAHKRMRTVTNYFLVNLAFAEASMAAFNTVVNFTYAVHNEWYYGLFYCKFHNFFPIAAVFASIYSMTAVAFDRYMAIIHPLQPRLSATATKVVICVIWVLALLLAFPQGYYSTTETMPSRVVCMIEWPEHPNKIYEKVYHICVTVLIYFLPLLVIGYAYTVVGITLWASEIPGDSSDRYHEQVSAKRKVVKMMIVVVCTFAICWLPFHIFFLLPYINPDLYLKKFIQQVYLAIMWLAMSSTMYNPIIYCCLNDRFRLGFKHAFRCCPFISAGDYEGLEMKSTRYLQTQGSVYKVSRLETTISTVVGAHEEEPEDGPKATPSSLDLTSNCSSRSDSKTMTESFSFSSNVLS

For the compound `Cn1c(-c2ccc(Cl)cc2)c(CCC(=O)N2CCC(O)(Cc3ccccc3)CC2)c2cc(N3CCCCC3)ccc21`, the IC50 (usually the concentration at which inhibition is half-maximal) in data set [1] is 3.3 nM.
For `Cn1c(-c2ccc(Cl)cc2)c(CCC(=O)N2CCC(O)(Cc3ccccc3)CC2)c2cc(-c3ccccn3)ccc21`, in data set [1], the IC50 stood at 1.7 nM.
The same measure, in the same setting: for `Cn1c(-c2ccc(Cl)cc2)c(CCC(=O)N2CCC(O)(Cc3ccccc3)CC2)c2cc(-c3ccncc3)ccc21` the value was 5.5 nM; for `Cn1c(-c2ccc(Cl)cc2)c(CCC(=O)N2CCC(O)(Cc3ccccc3)CC2)c2cnccc21`, 41 nM.
As for `C=Cc1ccc2c(c1)c(CCC(=O)N1CCC(O)(Cc3ccccc3)CC1)c(-c1ccc(Cl)cc1)n2C`, the IC50 in [1] is 0.27 nM.
Same read-out and setting: with `COc1ccccc1N1CCN(C(=O)CCc2c(-c3ccc(Cl)cc3)[nH]c3ccc(OC(F)(F)F)cc23)CC1` the figure was 8.9 nM; with `COc1ccccc1N1CCN(C(=O)CCc2c(-c3ccc(Cl)cc3)[nH]c3cccc(Cl)c23)CC1`, 950 nM.
Turning to `CC(=O)c1ccc2c(c1)c(CCC(=O)N1CCC(O)(Cc3ccccc3)CC1)c(-c1ccc(Cl)cc1)n2C`, the inhibition in vivo (in general, the drop in the measured response relative to a control, in per cent) at 1 mg/kg in data set [2] was determined as 14%. The same compound gave an IC50 in data set [1] of 0.19 nM.
For the compound `Cn1c(-c2ccc(Cl)cc2)c(CCC(=O)N2CCC(O)(Cc3ccccc3)CC2)c2cc(N3CCOCC3)ccc21`, the IC50 in data set [1] was found to be 6.3 nM.
Same read-out and setting: for `Cn1c(-c2ccc(Cl)cc2)c(CCC(=O)N2CCC(O)(Cc3ccccc3)CC2)c2cc(-n3cccc3)ccc21` the value was 2.3 nM; for `O=C(CCc1c(-c2ccc(Cl)cc2)nc2ccc(Cl)cn12)N1CCC(O)(Cc2ccccc2)CC1`, 0.78 nM; for `COc1ccccc1N1CCN(C(=O)CCc2c(-c3ccc(Cl)cc3)[nH]c3ccccc23)CC1`, 31 nM.
In data set [1], `COc1ccccc1N1CCN(C(=O)CCc2c(-c3ccccc3)[nH]c3ccc(F)cc23)CC1` had an IC50 of 87 nM. This IC50 is about 2.8-fold higher than that of the compound before.
In data set [1], `Cn1c(-c2ccc(Cl)cc2)c(CCC(=O)N2CCC(O)(Cc3ccccc3)CC2)c2nc(Cl)ccc21` gave an IC50 of 2.6 nM.
For the compound `COc1ccccc1N1CCN(C(=O)CCc2c(-c3ccc(Cl)cc3)[nH]c3cc(Cl)ccc23)CC1`, the IC50 in data set [1] worked out at 4.9 nM.
As for `COc1ccccc1N1CCN(C(=O)CCc2c(-c3ccc(Br)cc3)[nH]c3ccc(C)cc23)CC1`, in data set [1], the IC50 was found to be 1 nM.
Still for that read-out and setting: with `COc1ccccc1N1CCN(C(=O)CCc2c(-c3ccc(Cl)cc3)[nH]c3c(Cl)cc(Cl)cc23)CC1` the figure was 14 nM; with `COc1ccccc1N1CCN(C(=O)CCc2c(-c3ccc(Cl)cc3)[nH]c3ccc(Cl)cc23)CC1`, 0.89 nM.
On the same count and under the same terms, for `Cn1c(-c2ccc(Cl)cc2)c(CCC(=O)N2CCC(O)(Cc3ccccc3)CC2)c2cc(-c3cccnc3)ccc21` the value was 5.5 nM.
For `Cn1c(-c2ccc(Cl)cc2)c(CCC(=O)N2CCC(O)(Cc3ccccc3)CC2)c2cc(Cl)cnc21`, the inhibition in vivo at 1 mg/kg in data set [3] stood at 100%; in data set [6] it was 10%. Also, the AUC (commonly concentration integrated over time) turned out to be 8 ng·h/mL in data set [4] and 96.8 ng·h/mL in data set [5]. The same compound yielded an IC50 in data set [1] of 0.15 nM.
`COc1ccccc1N1CCN(C(=O)CCc2c(-c3ccccc3)[nH]c3ccc(Cl)cc23)CC1` displayed an IC50 in data set [1] of 5.6 nM. In other words, the single-digit nanomolar range.
Same read-out and setting: with `Cn1c(-c2ccc(Cl)cc2)c(CCC(=O)N2CCC(O)(Cc3ccccc3)CC2)c2cc(Cl)ncc21` the figure was 0.22 nM.
`Cn1c(-c2ccc(Cl)cc2)c(CCC(=O)N2CCC(O)(Cc3ccccc3)CC2)c2cc(Cl)ccc21`: the clearance – broadly, the rate of elimination divided by the concentration – in data set [7] stood at 31 mL/min/kg. In addition, the ED50 in data set [8] amounted to 0.3 mg/kg. The AUC in data set [4] was under 4 ng·h/mL; in data set [5], 24.7 ng·h/mL. Besides, the bioavailability in data set [9] is 2.3%. The IC50 in [1] amounted to 0.16 nM.
As to `COc1ccccc1N1CCN(C(=O)CCc2c(-c3ccc(Cl)cc3)[nH]c3cc(Cl)cc(Cl)c23)CC1`, the IC50 in [1] amounted to 570 nM.
Still for that read-out and setting: with `Cn1c(-c2ccc(Cl)cc2)c(CCC(=O)N2CCC(O)(Cc3ccccc3)CC2)c2cc(-c3ccco3)ccc21` the figure was 0.79 nM; with `COc1ccccc1N1CCN(C(=O)CCc2c(-c3ccc(Cl)cc3)[nH]c3ccc(C)cc23)CC1`, 0.6 nM; with `Cn1c(-c2ccc(Cl)cc2)c(CCC(=O)N2CCC(O)(Cc3ccccc3)CC2)c2cc(Br)ccc21`, 0.22 nM.
